Structures are written as SMILES. Several values for one entry are separate records, joined by “and”; a condition that tells them apart may be missing. Identical values can stand only once.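 Test compounds were applied to cells in 96-well plates for 48 hours at 5 doses. GI50 = concentration required for 50% inhibition of growth. At the TGI there is no net growth.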 Where only a bound is given, the exact number is not on record here.

Some test systems named below: MDA-MB-435; SNB-19 CNS; HCT-15 colon; IGROV1 ovarian; MCF7 breast; UACC-257 melanoma; NCI-H522 lung; A498 renal; SF-539 CNS; SW-620 colon.
What all share (experiment): NCI tumour cell line growth inhibition, 48 h

Take `CCSC[C@@H]1C[C@](O)(c2ccc(Cl)cc2)[C@@H](c2ccc(Cl)cc2)O1`: the GI50 in the assay with MDA-MB-435 was 19.2 µM; in the assay on SNB-19 CNS, 18.8 µM; with HCT-15 colon, 18.8 µM; with IGROV1 ovarian, 15.3 µM; with MCF7 breast, 21.8 µM; in the assay with UACC-257 melanoma it was 15.1 µM. Moreover, the GI50 with NCI-H522 lung was 15.5 µM; with A498 renal, 17.8 µM; in the assay with SF-539 CNS it was 16.5 µM; in the assay on SW-620 colon, 14.4 µM. Moreover, the TGI amounted to 40.1 µM with MDA-MB-435; 50 µM in the assay with SNB-19 CNS; 38.7 µM in the assay with HCT-15 colon; 32.3 µM with IGROV1 ovarian; 48.5 µM in the assay on MCF7 breast; 30.1 µM in the assay on UACC-257 melanoma. In addition, the TGI in the assay with NCI-H522 lung worked out at 31.4 µM; in the assay on A498 renal it was 32.1 µM; in the assay on SF-539 CNS it was 31.1 µM; in the assay on SW-620 colon, 33.6 µM.
Turning to `COc1cc(-c2nn(-c3cccc(NC(=O)Nc4ccc(Cl)c(C(F)(F)F)c4)c3)cc2-c2ccncc2)ccc1Cl`, the GI50 in the assay on MDA-MB-435 was 0.683 µM; in the assay on SNB-19 CNS, 1.24 µM; in the assay on HCT-15 colon, 1.23 µM; in the assay on IGROV1 ovarian, 1.2 µM; in the assay on MCF7 breast, 0.919 µM; with UACC-257 melanoma it was 1.21 µM. For the same compound, the GI50 in the assay with NCI-H522 lung is 1.14 µM; in the assay with A498 renal, 0.837 µM; in the assay on SF-539 CNS it was 1.66 µM; in the assay on SW-620 colon it was 1.29 µM. The TGI in the assay with MDA-MB-435 is 1.69 µM; in the assay on SNB-19 CNS it was 9.24 µM; in the assay with HCT-15 colon it was 7.05 µM; with IGROV1 ovarian, 4.22 µM; with MCF7 breast it was greater than 32.5 µM; with UACC-257 melanoma, 6.03 µM. Also, the TGI stood at 6.06 µM in the assay on NCI-H522 lung, 6.97 µM in the assay on A498 renal, 6.34 µM with SF-539 CNS and 29.9 µM in the assay with SW-620 colon.
As for `CCOC(=O)c1[nH]c2cc(Cl)ccc2c1[C@@H](C(=O)NC(C)(C)C)N(CC)C(=O)CCCCC#Cc1cccc2c1CN(C1CCC(=O)NC1=O)C2=O` (stereo not given in full), the GI50 with MDA-MB-435 is 2.34 µM; in the assay on SNB-19 CNS, 0.0731 µM; in the assay with HCT-15 colon, 0.048 µM; with IGROV1 ovarian it was less than 0.0109 µM; with MCF7 breast it was 0.117 µM; with UACC-257 melanoma, 3.05 µM. Further, the GI50 in the assay with NCI-H522 lung is 1.8 µM; in the assay on A498 renal it was less than 0.0104 µM; in the assay on SF-539 CNS, 1.74 µM; with SW-620 colon it was less than 0.01 µM. For the same compound, the TGI in the assay on MDA-MB-435 was greater than 31.7 µM; with SNB-19 CNS it was 34.5 µM; in the assay on HCT-15 colon, greater than 33.2 µM; with IGROV1 ovarian, 11.1 µM; with MCF7 breast, greater than 100 µM; with UACC-257 melanoma, greater than 87.5 µM. The TGI in the assay with NCI-H522 lung is 25.8 µM; in the assay on A498 renal it was 0.0723 µM; in the assay with SF-539 CNS it was 11.7 µM; with SW-620 colon, greater than 100 µM.
`O=C1C2CCN(CC2)C1CN1CCOCC1` (stereo not given): the TGI was greater than 100 µM in the assay with MDA-MB-435; 32.6 µM in the assay with SNB-19 CNS; 4.94 µM with HCT-15 colon; 38.4 µM in the assay with IGROV1 ovarian; 10.8 µM in the assay on MCF7 breast; 10.2 µM with UACC-257 melanoma. Moreover, the TGI with NCI-H522 lung is 1.99 µM; with A498 renal it was 31.2 µM; in the assay on SF-539 CNS, 29 µM; with SW-620 colon, 3.2 µM.
On to `OC1CC2CCC(C1)N2CCCN1c2ccccc2Sc2ccc(Cl)cc21` (stereo not given), for which the TGI with MDA-MB-435 was 3.31 µM; with SNB-19 CNS it was 13.5 µM; in the assay with HCT-15 colon, 6.65 µM; in the assay with IGROV1 ovarian, 5.01 µM; with MCF7 breast it was 3.3 µM; with UACC-257 melanoma, 2.6 µM. Besides, the TGI with NCI-H522 lung amounted to 4.19 µM; in the assay with A498 renal, 5.62 µM; in the assay on SF-539 CNS it was 3.89 µM; with SW-620 colon it was 5.77 µM.
Regarding `CN(C)CCNc1ccc2ncn3c4ccc(O)cc4c(=O)c1c23`, the TGI in the assay on MDA-MB-435 was 14.7 µM; in the assay with SNB-19 CNS, 17.2 µM; in the assay on HCT-15 colon it was 10.2 µM; in the assay with IGROV1 ovarian, 8.87 µM; in the assay with MCF7 breast, 4.91 µM; in the assay with UACC-257 melanoma it was 19.7 µM. For the same compound, the TGI in the assay on NCI-H522 lung came out at 5.68 µM; in the assay with A498 renal it was 8.04 µM; in the assay with SF-539 CNS, 14.7 µM; in the assay with SW-620 colon, 11.8 µM.
In the case of `COc1ccc2c(c1)c(-c1nc(-c3cn(C)c4ccncc34)cs1)cn2C`, the GI50 was 1.59 µM with MDA-MB-435; 2.26 µM in the assay with SNB-19 CNS; 1.54 µM in the assay with HCT-15 colon; 1.92 µM with IGROV1 ovarian; 1.7 µM in the assay on MCF7 breast; 1.9 µM in the assay on UACC-257 melanoma. The GI50 with NCI-H522 lung was 1.77 µM; with A498 renal, 6.59 µM; in the assay with SF-539 CNS, 1.77 µM; in the assay with SW-620 colon, 1.96 µM. For the same compound, the TGI in the assay with MDA-MB-435 came out at 2.97 µM; with SNB-19 CNS it was 4.73 µM; in the assay on HCT-15 colon, 3.33 µM; with IGROV1 ovarian, 3.65 µM; in the assay on MCF7 breast, 3.34 µM; in the assay on UACC-257 melanoma, 3.6 µM. Also, the TGI amounted to 3.26 µM in the assay with NCI-H522 lung, 20.4 µM in the assay with A498 renal, 3.25 µM in the assay with SF-539 CNS and 3.73 µM in the assay with SW-620 colon.
As to `COc1ccc(Br)cc1NC(=O)Nc1cccc2c1ccn2Cc1ccnc(N)c1`, the GI50 is 5.42 µM and 5.81 µM in the assay on MDA-MB-435; 13.6 µM and > 10 µM in the assay on SNB-19 CNS; 2.44 µM and 2.94 µM with HCT-15 colon; 7.64 µM and 3.95 µM in the assay on IGROV1 ovarian; 3.82 µM and 5.69 µM in the assay on MCF7 breast; 9.81 µM and > 10 µM with UACC-257 melanoma. Further, the GI50 in the assay with NCI-H522 lung was 1.89 µM and 2.45 µM; in the assay on A498 renal it was 2.41 µM and 4.12 µM; with SF-539 CNS, 3.34 µM and 2.38 µM; in the assay with SW-620 colon, 2.85 µM and 6.72 µM. In addition, the TGI with MDA-MB-435 is 23.5 µM and > 10 µM; in the assay with SNB-19 CNS, greater than 85.7 µM; with HCT-15 colon it was 6.31 µM and > 10 µM; with IGROV1 ovarian, 44.2 µM and > 10 µM; in the assay with MCF7 breast, 20.7 µM and > 10 µM; in the assay on UACC-257 melanoma, 27.5 µM and > 10 µM. In addition, the TGI was 4.35 µM and > 10 µM in the assay with NCI-H522 lung; 11.6 µM and > 10 µM in the assay with A498 renal; 19.3 µM and > 10 µM in the assay on SF-539 CNS; 8.41 µM and > 10 µM in the assay on SW-620 colon.
